# Results from the Kinase Knowledgebase extract (Sharma et al. 2016).
# Experiments:
# CDK2 (human) [1] = molecular target: CDK2 (human) (UniProt P24941); assay: Enzyme Assay
# CDK2 (human) [2] = molecular target: CDK2 (human) (UniProt P24941); assay: Cell-Based Assay
# CDK2 (human) [3] = molecular target: CDK2 (human) (UniProt P24941); assay: Cell-Based Assay; details: rko
Compound,IC50 (CDK2 (human) [1]),IC50 (CDK2 (human) [2]; hdf),IC50 (CDK2 (human) [2]; hdf-3),IC50 (CDK2 (human) [2]; mes/sa),IC50 (CDK2 (human) [2]; rko),IC50 (CDK2 (human) [3]),IC50 (CDK2 (human) [2]; mda-mb-468)
CS(=O)(=O)Cc1ccc(N/C=C2\C(=O)Nc3ccc4ncsc4c32)cc1,30.5 nM,,3.05 µM,3.05 µM,3.05 µM,,
CN(C)S(=O)(=O)c1ccc(N/C=C2/C(=O)Nc3ccc(-c4cnco4)cc32)cc1,,,,,,,> 5 µM
CNS(=O)(=O)Cc1ccc(NN=C2C(=O)Nc3cc(C)c(O)c(C)c32)cc1,75.5 nM,0.8 µM,3.05 µM,,0.3 µM,300 nM,
CNS(=O)(=O)Cc1ccc(NN=C2C(=O)Nc3ccc4ncccc4c32)cc1,5.5 nM,,3.05 µM,,3.05 µM,,
O=C1Nc2ccc3ncsc3c2/C1=C/Nc1ccc2nn[nH]c2c1,30.5 nM,,,,,,3.05 µM
CN(C)S(=O)(=O)c1ccc(N/C=C2\C(=O)Nc3ccc(-c4cnco4)cc32)cc1,5.5 nM,,,,3.05 µM,3050 nM,

# More lines, in order of falling IC50 (CDK2 (human) [1]), values ahead:
IC50 (CDK2 (human) [1]),IC50 (CDK2 (human) [2]; hdf),IC50 (CDK2 (human) [2]; hdf-3),IC50 (CDK2 (human) [2]; mes/sa),IC50 (CDK2 (human) [2]; rko),IC50 (CDK2 (human) [3]),IC50 (CDK2 (human) [2]; mda-mb-468),Compound
5.5 nM,3.05 µM,0.8 µM,0.3 µM,0.8 µM,800 nM,,NS(=O)(=O)c1ccc(NN=C2C(=O)Nc3ccc(-c4cnco4)cc32)cc1
5.5 nM,,3.05 µM,,3.05 µM,,,CCC(C)Cc1cccc2c1C(=NNc1ccc(S(N)(=O)=O)cc1)C(=O)N2 (configuration not stated)
